According to US8871796B2, “Diaryl ether derivatives as notch sparing gamma secretase inhibitors” (Merck Sharp & Dohme Corp., priority 2009, dated 2014):
pIC50: −log10 of the molar value. Read-outs that look alike come from different tables or passages of the source.

Experiment: APP processing: AlphaLisa assay of secreted Aβ40 and Aβ42 from SP4CT cells
Assay type: cell-based
Details: Homo sapiens, SH-SY5Y cells expressing amyloid β protein (SP4CT cells)
Procedure: APP Processing (Assay Quantitates Secreted Aβ Analytes from Cell Lines):
The effect of compounds on the abundance of Aβ40 and Aβ42 peptides generated from SH-SY5Y cells expressing amyloid β protein (SP4CT cells) are determined by an AlphaLisa™ assay. Analogous to an ELISA assay, generation of […] AlphaLisa™ assay requires “donor” and “acceptor” beads to be brought in close proximity by specific antibody recognition of either Aβ40 or Aβ42 peptides. The assay is accomplished by removing media from compound-treated SP4CT cells to two different microplates, followed by the addition of donor beads conjugated with streptavidin binding a biotinylated anti-amyloid β monocolonal antibody (clone 4G8). Acceptor beads directly conjugated with anti-Aβ40 monoclonal antibody (G210) are added to one microplate and anti-Aβ42 monoclonal antibody (12F4) acceptor beads were added to the other. Abundance of Aβ40 and Aβ42 is directly proportional to the luminescent signal generated following excitation of donor beads by laser light.

[1] = read-out: IC50, inhibition of production of Aβ40 peptide
[2] = read-out: IC50, inhibition of production of Aβ42 peptide

| SMILES | pIC50 [1] | pIC50 [2] |
| --- | --- | --- |
| CCn1nc(-c2cc(F)cc(C(C)(C)NS(=O)(=O)CC(F)(F)F)c2)cc1Oc1ccc(C(F)(F)F)cc1 [Example 15, N-[1-(3-{1-ethyl-5-[4-(trifluoromethyl)phenoxy]-1H-pyrazol-3-yl}-5-fluorophenyl)-1-methylethyl]-2,2,2-trifluoraethanesulfonamide] | > 6.70 | > 6.70 |
| CCCNS(=O)(=O)NC1(c2cccc(-c3cc(Oc4ccc(C(F)(F)F)cc4)nn3CC)c2)CC1 [Example 33, N-[1-(3-{1-ethyl-3-[4-(trifluoromethyl)phenoxy]-1H-pyrazol-5-yl}phenyl)cyclopropyl]-N′-propylsulfamide] | > 6.70 | > 6.70 |
| CCn1nc(-c2cccc(C3(NS(=O)(=O)CC(F)(F)F)CC3)c2)cc1Oc1ncc(C(F)(F)F)cc1Cl [Example 39, N-{1-[3-(5-{[3-chloro-5-(trifluoromethyl)pyridin-2-yl]oxy}-1-ethyl-1H-pyrazol-3-yl)phenyl]cyclopropyl}-2,2,2-trifluoroethanesulfonamide] | > 6.70 | > 6.70 |
| CCn1nc(-c2cccc(C(C)(C)NS(=O)(=O)CC(F)(F)F)c2)cc1Oc1ccc(CN2CCC3(CC2)OCCO3)cc1 [Example 87, N-[1-(3-{5-[4-(1,4-dioxa-8-azaspiro[4.5]dec-8-ylmethyl)phenoxy]-1-ethyl-1H-pyrazol-3-yl}phenyl)-1-methylethyl]-2,2,2-trifluoroethanesulfonamide] | > 6.70 | > 6.70 |
| CCn1nc(-c2cccc(C(C)(C)NS(=O)(=O)NCC(F)(F)F)c2)cc1Oc1ccc(C(F)(F)F)cc1 [Example 4, N-[1-(3-{1-ethyl-5-[4-(trifluoromethyl)phenoxy]-1H-pyrazol-3-yl}phenyl)-1-methylethyl]-N′-(2,2,2-trifluoroethyl)sulfamide] | > 6.70 | > 6.70 |
| CCn1nc(-c2cccc(C3(NS(=O)(=O)CC(F)(F)F)CC3)c2)c(Cl)c1Oc1ccc(C(F)(F)F)cc1 [Example 111, N-[1-(3-{4-chloro-1-ethyl-5-[4-(trifluoromethyl)phenoxy]-1H-pyrazol-3-yl}phenyl)cyclopropyl]-2,2,2-trifluoroethanesulfonamide] | > 6.70 | > 6.70 |
| CCn1nc(-c2cccc(C(C)(C)NS(=O)(=O)CC(F)(F)F)c2)cc1Oc1ccc(CNCC(=O)OC)cc1 [Example 81, methyl N-[4-({1-ethyl-3-[3-(1-methyl-1-{[(2,2,2-trifluoroethyl)sulfonyl]amino}ethyl)phenyl]-1H-pyrazol-5-yl}oxy)benzyl]glycinate] | > 6.70 | > 6.70 |
| CCn1nc(Oc2ccc(C(F)(F)F)cn2)cc1-c1cccc(C2(NS(=O)(=O)CC(F)(F)F)CC2)c1 [Example 32, N-{1-[3-(1-ethyl-3-{[5-(trifluoromethyl)pyridin-2-yl]oxy}-1H-pyrazol-5-yl)phenyl]cyclopropyl}-2,2,2-trifluoroethanesulfonamide] | > 6.70 | > 6.70 |
| CCn1nc(-c2cccc(C(C)(C)NS(=O)(=O)CC(F)(F)F)c2)cc1Oc1ccc(C(O)C(F)(F)F)cc1 (stereo not shown) [Example 71, N-[1-(3-{1-ethyl-5-[4-(2,2,2-trifluoro-1-hydroxyethyl)phenoxy]-1H-pyrazol-3-yl}phenyl)-1-methylethyl]-2,2,2-trifluoroethanesulfonamide] | > 6.70 | > 6.70 |
| COCCCn1nc(-c2cccc(C3(NS(=O)(=O)CC(F)(F)F)COC3)c2)cc1Oc1ccc(C(F)(F)F)cc1 [Example 142] | > 6.70 | > 6.70 |
| CCn1nc(Oc2ccc(Cl)nc2)cc1-c1cccc(C(C)(C)NS(=O)(=O)CC(F)(F)F)c1 [Example 22, N-[1-(3-{3-[(6-chloropyridin-3-yl)oxy]-1-ethyl-1H-pyrazol-5-yl]phenyl)-1-methylethyl]-2,2,2-trifluoroethanesulfonamide] | > 6.70 | > 6.70 |
